Experiments:
[1] = target: T1, human recombinant LSD1 (Homo sapiens, UniProt O60341); assay: LSD1 inhibitor screening assay (Cayman Chemical kit, fluorometric); assay type: biochemical; details: 10 μM compound
T1 construct: purchased Cayman Chemical Item #700120
Protocol: LSD1 Inhibitor Screening Assay:
In short, 10 μM of compound was combined with the fluorometic substrate 10-acetyl-3,7-dihydroxyphenoxazine, horseradish peroxidase, human recombinant LSD1, and 100 μM dimethylated lysine at residue 4 [ARTK(diMe)[…]] (Seq. ID No: 1) for 30 mins at 37° C. Plates were read using an excitation wavelength of 535 nm and an emission wavelength of 590 nm with a SpectraMax M5 Microplate reader.

[2] = Solubility noted in the LSD1 screen; assay type: physicochemical; details: LSD1 screen at 10 μM
[3] = system: murine myocardium; assay: Infarct area in myocardial cross-section after induced myocardial ischemia; assay type: in vivo, mouse; details: 10 mg/kg; versus vehicle
Description: In the Langendorff preparation, the heart is removed with preservation of a portion of the afferent and efferent blood vessels; it is then perfused in a reverse fashion via the aorta, usually with a nutrient rich, oxygenated solution (e.g. Krebs-Henseleit solution or Tyrode's solution). The backwards pressure causes the aortic valve to shut, forcing the solution into the coronary vessels, which normally supply the heart tissue with blood. This feeds nutrients and oxygen to the cardiac muscle, allowing it to continue beating for several hours after its removal from the animal. This is a useful preparation because it allows the addition of drugs (via the perfusate) and observation of their effect on the heart without the complications involved with in vivo experimentation, such as neuronal and hormonal effects from living animal (Broadley, K. J., 1970). A pressure transducer is inserted to measure a number of cardiac performance parameters including left ventricular developed pressure, left ventricular end diastolic pressure, heart rate, etc. […]
The compounds described herein may be used to protect the myocardium from injury following an ischemic event. […] Results are expressed as a percentage of the area of infarct with respect to total surface area. […]

[4] = system: LSD1:CoREST complex; assay: Pull-down of HDAC1/CoREST/LSD1 complex with LSD1 antibody, Western blot for CoREST; assay type: cell-based; details: primary feline cardiomyocytes, 3 h, 1 μM; LSD1 antibody pull-down
Protocol: Co-immunoprecipitation analysis for LSD1:CoREST complex following treatment from primary rat cardiomyocytes with 5 μM and 1 μM C1 was performed as described above. Lysates pulled down with LSD1 antibody and western blotted for CoREST (n=2).

[5] = system: mouse heart; assay: Langendorff isolated heart model, ischemia/reperfusion; details: versus vehicle
Description: In the Langendorff preparation, the heart is removed with preservation of a portion of the afferent and efferent blood vessels; it is then perfused in a reverse fashion via the aorta, usually with a nutrient rich, oxygenated solution (e.g. Krebs-Henseleit solution or Tyrode's solution). The backwards pressure causes the aortic valve to shut, forcing the solution into the coronary vessels, which normally supply the heart tissue with blood. This feeds nutrients and oxygen to the cardiac muscle, allowing it to continue beating for several hours after its removal from the animal. This is a useful preparation because it allows the addition of drugs (via the perfusate) and observation of their effect on the heart without the complications involved with in vivo experimentation, such as neuronal and hormonal effects from living animal (Broadley, K. J., 1970). A pressure transducer is inserted to measure a number of cardiac performance parameters including left ventricular developed pressure, left ventricular end diastolic pressure, heart rate, etc. Following the Langendorff procedure, the myocardium is cut into cross sections, and infarcted tissue is identified by the inability to take up stain; thus infarcted areas appear white, while healthy areas appear red.
The compounds described herein may be used to protect the myocardium from injury following an ischemic event. In FIG. 6, a mouse heart was subjected to ischemia by ligation of the afferent vessel in a Langendorff preparation, as described above. Prior to the induction of ischemia, hearts were either pre-treated with vehicle, verlindamycin or C1. […] In FIG. 8, the results of an experiment to measure infarcted tissue in a myocardial cross-section are shown. Results are expressed as a percentage of the area of infarct with respect to total surface area. […] The HDAC1/CoREST/LSD1 complex was pulled down with an LSD1 antibody and a Western blot for CoREST was performed.

[6] = synthetic analogues of C1, Table 2

Clc1ccccc1CNc1nc[nH]n1 [Compound C6, N-(2-chlorobenzyl)-1H-1,2,4-triazol-3-amine]
inhibition at 10 µM ([1]; Chembridge analogues table): 4.6 ± 6.9%

Nc1n[nH]c(NCc2ccccc2Oc2cccc3ccccc23)n1 [Compound M9]
inhibition at 10 µM [1, 6]: 78.1 ± 2.6%

COc1ccc(Sc2cccc(Cl)c2CNc2nnc(N)[nH]2)cc1OC [Compound 5t, N^3-(2-chloro-6-((3,4-dimethoxyphenyl)thio)benzyl)-4H-1,2,4-triazole-3,5-diamine]
inhibition at 10 µM [1, 6]: 53.2 ± 1.7%

Clc1ccc(CNc2nc[nH]n2)c(Cl)c1 [Compound C4, N-(2,4-dichlorobenzyl)-1H-1,2,4-triazol-3-amine]
inhibition at 10 µM ([1]; Chembridge analogues table): 2.2 ± 6.9%

Nc1n[nH]c(NCc2c(Cl)cccc2Oc2cccc3ccccc23)n1 [Compound M1]
inhibition at 10 µM [1, 6]: 95.3 ± 2.8%

COc1cccc(Cl)c1CNc1nc(N)n[nH]1 [Compound H1]
inhibition at 10 µM [1, 6]: 73.1 ± 1.6%

Clc1ccc(OCc2ccccc2)c(CNc2nn[nH]n2)c1 [Compound C11, N-(2-(benzyloxy)-5-chlorobenzyl)-2H-tetrazol-5-amine]
inhibition at 10 µM ([1]; Chembridge analogues table): 19.9 ± 8.4%

Cc1ccc(C(C)C)c(Oc2cccc(Cl)c2CNc2nnc(N)[nH]2)c1 [Compound 5c, N^3-(2-chloro-6-(2-isopropyl-5-methylphenoxy)benzyl)-4H-1,2,4-triazole-3,5-diamine]
inhibition at 10 µM [1, 6]: 56.3 ± 3.2%

COc1cc(Oc2cccc(Cl)c2CNc2nc(N)n[nH]2)cc(OC)c1OC [Compound M7]
inhibition at 10 µM [1, 6]: 67.6 ± 6.2%

Clc1cccc(Cl)c1CNc1nc[nH]n1 [Compound C9, N-(2,6-dichlorobenzyl)-1H-1,2,4-triazol-3-amine]
inhibition at 10 µM ([1]; Chembridge analogues table): 30.9 ± 7.7%

Nc1n[nH]c(NCc2c(Cl)cccc2Oc2ccc(F)cc2)n1 [Compound M6]
inhibition at 10 µM [1, 6]: 76.4 ± 2.2%

Fc1ccc(COc2ccc(Cl)cc2CNc2nc[nH]n2)cc1 [Compound C2, N-(5-chloro-2-((4-fluorobenzyl)oxy)benzyl)-1H-1,2,4-triazol-3-amine]
inhibition at 10 µM ([1]; Chembridge analogues table): 27.7 ± 9%

CC(C)(C)c1ccc(Oc2cccc(Cl)c2CNc2nnc(N)[nH]2)cc1 [Compound 5f, N^3-(2-(4-(tert-butyl)phenoxy)-6-chlorobenzyl)-4H-1,2,4-triazole-3,5-diamine]
inhibition at 10 µM [1, 6]: 58.2 ± 8.8%

CSc1ccc(Oc2cccc(Cl)c2CNc2nnc(N)[nH]2)cc1 [Compound 5l, N^3-(2-chloro-6-(4-((methyl)thio)phenoxy)benzyl)-4H-1,2,4-triazole-3,5-diamine]
solubility (reason why % inhibition was not determined) [2]: Not Determined (Insolube)

CCOc1ccc(Cl)cc1CNc1nn[nH]n1 [Compound C14, N-(5-chloro-2-ethoxybenzyl)-2H-tetrazol-5-amine]
inhibition at 10 µM ([1]; Chembridge analogues table): 20.8 ± 5%

COc1cccc(CNc2nnc[nH]2)c1OCc1ccccc1Cl [Compound C7, N-(2((2-chlorobenzyl)oxy)-3-methoxybenzyl)-4H-1,2,4-triazo1-3-amine]
inhibition at 10 µM ([1]; Chembridge analogues table): 18.1 ± 8.2%

Cc1cc(C)cc(Oc2cccc(Cl)c2CNc2nnc(N)[nH]2)c1 [Compound 5g, N^3-(2-chloro-6-(3,5-dimethylphenoxy)benzyl)-4H-1,2,4-triazole-3,5-diamine]
inhibition at 10 µM [1, 6]: 67.9 ± 6.5%

Nc1nnc(NCc2c(Cl)cccc2Oc2ccc(Br)cc2C(F)(F)F)[nH]1 [Compound 5k, N^3-(2-(4-bromo-2-(trifluoromethyl)phenoxy)-6-chlorobenzyl)-4H-1,2,4-triazole-3,5-diamine]
inhibition at 10 µM [1, 6]: 67.8 ± 5.4%

Cc1ccc(Oc2cccc(Cl)c2CNc2nnc(N)[nH]2)cc1 [Compound 5b, N^3-(2-chloro-6-(p-tolyloxy)benzyl)-4H-1,2,4-triazole-3,5-diamine]
inhibition at 10 µM [1, 6]: 59.3 ± 6.1%

Cc1ccccc1Oc1cccc(Cl)c1CNc1nnc(N)[nH]1 [Compound 5q]
inhibition at 10 µM [1, 6]: 74.2 ± 5.2%

Cc1ccc(COc2ccc(Cl)cc2CNc2nn[nH]n2)cc1 [Compound C8, N-(5-chloro-2-((4-methylbenzyl)oxy)benzyl)-2H-tetrazol-5-amine]
inhibition at 10 µM ([1]; Chembridge analogues table): 6.9 ± 7.5%

Verlindamycin tetrahydrochloride [Compound 2d, reference compound]
infarct area as a percentage of the total left ventricular area [3]: significantly more effective than treatment with vehicle
association between LSD1 and CoREST [4]: Only compound C1 disrupted the association
left ventricular end diastolic pressure ([5]; 1 hour pre-treatment with 1.0 μM): reduced to near-normal levels
left ventricular developed pressure ([5]; pre-treatment before ischemia, after reperfusion): restored to nearly normal levels

Nc1nnc(NCc2c(Cl)cccc2Oc2ccc(Br)cc2Br)[nH]1 [Compound 5j]
solubility (reason why % inhibition was not determined) [2]: Not Determined (Insolube)

COc1ccc(Cl)cc1CNc1nn[nH]n1 [Compound C13, N-(5-chloro-2-methoxybenzyl)-2H-tetrazol-5-amine]
inhibition at 10 µM ([1]; Chembridge analogues table): 30.8 ± 5.7%

COc1cc(Oc2ccccc2CNc2nc(N)n[nH]2)cc(OC)c1OC [Compound M8]
inhibition at 10 µM [1, 6]: 56 ± 4.1%

COc1cc(OC)cc(Oc2cccc(Cl)c2CNc2nnc(N)[nH]2)c1 [Compound 5n, N^3-(2-chloro-6-(3,5-dimethoxyphenoxy)benzyl)-4H-1,2,4-triazole-3,5-diamine]
inhibition at 10 µM [1, 6]: 63.3 ± 8.6%

CCOc1cc(Cl)cc(CNc2nc[nH]n2)c1 [Compound C10, N-(3-chloro-5-ethoxybenzyl)-1H-1,2,4-triazol-3-amine]
inhibition at 10 µM ([1]; Chembridge analogues table): -3 ± 12.7%

Fc1ccccc1COc1ccc(Cl)cc1CNc1nc[nH]n1 [Compound C3, N-(5-chloro-2-((2-fluorobenzyl)oxy)benzyl)-1H-1,2,4-triazol-3-amine]
inhibition at 10 µM ([1]; Chembridge analogues table): 30.6 ± 6.4%

Nc1n[nH]c(NCc2c(Cl)cccc2Oc2cccc3cc[nH]c23)n1 [Compound M5]
inhibition at 10 µM [1, 6]: 67.6 ± 3.7%

COc1cccc(CNc2nn[nH]n2)c1OCc1ccccc1Cl [Compound C12, N-(2-((2-chlorobenzyl)oxy)-3-methoxybenzyl)-2H-tetrazol-5-amine]
inhibition at 10 µM ([1]; Chembridge analogues table): 22.1 ± 7.3%

Nc1nnc(NCc2c(Cl)cccc2Oc2ccc(SC(F)(F)F)cc2)[nH]1 [Compound 5i, N^3-(2-chloro-6-(4-((trifluoromethyl)thio)phenoxy)benzyl)-4H-1,2,4-triazole-3,5-diamine]
solubility (reason why % inhibition was not determined) [2]: Not Determined (Insoluble)

COc1cccc(NCc2nn[nH]n2)c1OCc1ccc(F)cc1Cl [Compound C5, N-((2H-tetrazol-5-yl)methyl)-2-((2-chloro-4-fluorobenzyl)oxy)-3-methoxyaniline]
inhibition at 10 µM ([1]; Chembridge analogues table): -3.1 ± 7.8%

CCOc1cc(C)ccc1Oc1ccccc1CNc1nc(N)n[nH]1 [Compound M10]
inhibition at 10 µM [1, 6]: 73.8 ± 4.4%

Nc1nnc(NCc2c(Cl)cccc2Oc2cc(C(F)(F)F)cc(C(F)(F)F)c2)[nH]1 [Compound 5h, N^3-(2-(3,5-bis(trifluoromethyl)phenoxy)-6-chlorobenzyl)-4H-1,2,4-triazole-3,5-diamine]
inhibition at 10 µM [1, 6]: 44.9 ± 4.6%

COc1cc(C)ccc1Oc1cccc(Cl)c1CNc1nnc(N)[nH]1 [Compound 5m, N^3-(2-chloro-6-(2-methoxy-4-methylphenoxy)benzyl)-4H-1,2,4-triazole-3,5-diamine]
inhibition at 10 µM [1, 6]: 84.7 ± 3.2%

Nc1n[nH]c(NCc2c(Cl)cccc2Oc2ccc(-c3ccccc3)cc2)n1 [Compound M3]
inhibition at 10 µM [1, 6]: 66.8 ± 4.4%

Nc1nnc(NCc2c(Cl)cccc2Oc2ccc3c(c2)OCO3)[nH]1 [Compound 5r, N^3-(2-(benzo[d][1,3]dioxol-5-yloxy)-6-chlorobenzyl)-4H-1,2,4-triazole-3,5-diamine]
inhibition at 10 µM [1, 6]: 65.8 ± 6.4%

COc1cccc(Oc2cccc(Cl)c2CNc2nnc(N)[nH]2)c1 [Compound 5d, N^3-(2-chloro-6-(3-methoxyphenoxy)benzyl)-4H-1,2,4-triazole-3,5-diamine]
inhibition at 10 µM [1, 6]: 44.6 ± 5.1%

Nc1nnc(NCc2ccccc2)[nH]1 [Compound 5e]
inhibition at 10 µM [1, 6]: 41 ± 17.4%

CCOc1cc(C)ccc1Oc1cccc(Cl)c1CNc1nc(N)n[nH]1 [Compound M4]
inhibition at 10 µM [1, 6]: 77.7 ± 2.9%

Source: patent US10118903B2, “Aminotriazole-based KDM1A inhibitors as epigenetic modulators” (MUSC FOUNDATION FOR RESEARCH DEVELOPMENT, priority 2014, dated 2018)
